IC50 data for 19 compounds are collected here from patent publication US20240262842A1, “SMALL MOLECULE INHIBITORS OF KRAS G12C MUTANT” (Merck Sharp & Dohme LLC, priority 2021, published 2024).

Assay [1] has as its target T1, interaction between GMPPNP-bound recombinant K-Ras4B G12C mutant protein and cRAF RAS-binding domain (cRAF-RBD) (Homo sapiens, UniProt P01116, G12C).
T1 construct: His-tag (N)
In words: Inhibitory activity on interaction between KRAS G12C and cRAF (Alpha technology). The procedure:
Interaction between recombinant K-Ras4B G12C mutant protein (amino acids 1-169, SEQ ID NO:2) and cRAF RAS-binding domain (cRAF-RBD, amino acids 50-132, Jena Biosciences GmbH) was measured using Alpha technology (PerkinElmer Inc.).
Recombinant KRAS G12C protein with an N-terminal His-tag was expressed in E. coli and purified by affinity chromatography. To prepare GTP-bound form and GDP-bound form of KRAS G12C protein, 50 μM KRAS G12C protein was incubated with 1 mM GMPPNP (Guanosine-5′-[(β,γ)-imido]triphosphate, Tetralithium salt) (Jena Bioscience GmbH) and 1 mM GDP, respectively, in a loading buffer (20 mM Tris-HCl (pH 7.5), 50 mM NaCl, 1 mM DTT and 2.5 mM EDTA) for 1 hour on ice. After the incubation, MgCl2 was added to a final concentration of 10 mM, followed by incubation at room temperature for 30 minutes. The mixture was allowed to pass through a NAP-5 column to remove free nucleotides and purified, and the resultant nucleotide-bound KRAS G12C protein was used for compound evaluation.
For the measurement of the inhibitory activity of compounds on interaction between KRAS G12C and cRAF-RBD, GMPPNP-bound KRAS G12C protein was incubated with various concentrations of compound in a reaction buffer (20 mM Tris-HCl (pH 7.5), 100 mM NaCl, 1 mM MgCl2, 1 mM TCEP, 0.1% Tween 20) at 25° C. for 1 hour. After the incubation, recombinant cRAF-RBD and Alpha detection reagents were added and incubated at room temperature for 1.5 hours for binding. Interaction of KRAS G12C and cRAF-RBD was monitored by measuring Alpha signal. Inhibition % was calculated using the signal from the reaction without test compound (DMSO control) as 0% inhibition and the signal from the reaction using GDP-bound KRAS G12C in place of GMPPNP-bound KRAS G12C as 100% inhibition. IC50 values were calculated from dose titration curve using curve fitting by XLfit software (IDBS).

For the next assay, the system named is MIA PaCa-2 cells. The assay can be described thus: Growth inhibition activity on KRAS-G12C mutant cell line (CellTiter-Glo 3D). The format is cell-based, human. The following applies: MIA PaCa-2, 3-day culture with compound. The procedure:
MIA PaCa-2 cells (given by Sumitomo Dainippon Pharma Co., Ltd.), which are a KRAS-G12C mutant human pancreas cancer cell line, were suspended in a 10% fetal bovine serum-containing RPMI1640 medium (manufactured by Fujifilm Wako Pure Chemical Corporation). The cell suspension was seeded into each well of a 384-well U bottom microplate and cultured in an incubator containing 5% CO2 gas at 37° C. for 1 day. The compounds obtained in the “Preparation of Compounds” section were used as test compounds and were dissolved in DMSO, respectively, and each test compound was diluted with DMSO to give a concentration 500 times the final concentration. The resultant solution of the test compound in DMSO was diluted with the medium used for suspending cells and added to each well of the cell-culture plate to give a DMSO final concentration of 0.2%, followed by culture in an incubator containing 5% CO2 gas at 37° C. for another 3 days. The cell count after 3-day culture in the presence of the test compound was measured using CellTiter-Glo 3D Reagent (manufactured by Promega Corporation). All wells were added with CellTiter-Glo 3D Reagent and mixed for 10 minutes. 30 minutes after mixing, luminescence was measured by a plate reader. The growth inhibition rate was calculated from the following equation, and the concentration of the test compound at which 50% inhibition was achieved (IC50 (nM)) was determined.
[formula] • T: the emission intensity in a well into which a test compound was added. • C: the emission intensity in a well into which a test compound was not added.
(In general: Cellular ATP, detected with luciferase, serves as a proxy for viable cell number.)

[2] abbreviates: GMPPNP-bound KRAS G12C incubated with compound 25° C. 1 hour, Table 2-1, read-out: IC50.
[3] abbreviates: Homo sapiens, MIA PaCa-2, 72 h, Table 3-1.
The mark [4] stands for this setting: IC50, GMPPNP-bound KRAS G12C incubated with compound 25° C. 1 hour, Table 2-1.
Where [5] appears, read: IC50, GMPPNP-bound KRAS G12C incubated with compound 25° C. 1 hour, Table 2.
[6] abbreviates: GMPPNP-bound KRAS G12C incubated with compound 25° C. 1 hour, Table 2, read-out: IC50.

Where two headings read alike, the source gives them in different places. A value given as a limit tells only on which side of the number the result lay.

T1 sequence (P01116 with tags, fused parts or gaps isoform P01116-2 G12C): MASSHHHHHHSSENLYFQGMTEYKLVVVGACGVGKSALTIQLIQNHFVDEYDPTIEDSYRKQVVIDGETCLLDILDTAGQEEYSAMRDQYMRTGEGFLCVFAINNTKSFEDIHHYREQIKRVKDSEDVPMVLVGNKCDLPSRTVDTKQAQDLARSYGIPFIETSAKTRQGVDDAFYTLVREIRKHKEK

The term IC50 denotes the point on the concentration scale where inhibition reaches its midpoint. With `CN1CCc2cc(C(=O)c3cc(F)c(NC(=O)/C=C/CN[C@H]4CCOC4)c(F)c3)n3cccc(c23)-c2c(C(F)(F)F)cc3[nH]cnc3c21` (atropisomer, axis not shown) [Example 218], the IC50 in assay [1] (setting [2]) was 27 nM; in the assay on MIA PaCa-2 cells (setting [3]), 14.2 nM.

Take `CN1CCc2cc(C(=O)c3cc(F)c(NC(=O)/C=C/CNC4(C)CC4)c(F)c3)n3cccc(c23)-c2c(C(F)(F)F)cc3[nH]cnc3c21` (atropisomer, axis not shown) [Example 239, (E)-N-(2,6-difluoro-4-(12-methyl-7-(trifluorometh-yl)-9,12,13,14-tetrahydro-imidazo[4″,5″:5′,6′]benzo-[1′,2′:2,3]azocino[4,5,6-hi]indolizine-2-carbonyl)-phenyl)-4-((1-methyl-cyclopropyl)amino)but-2-enamide]: the IC50 in assay [1] (setting [2]) came to 18.2 nM; in the assay on MIA PaCa-2 cells (setting [3]), 9.69 nM.

Take `Cc1cc2c(nc(C)n2C)c2c1-c1cccc3c(C(=O)c4cc(F)c(NC(=O)/C=C/CN[C@H]5C[C@@H]6CC[C@H]5O6)c(F)c4)cn(c13)CCN2C` (racemic) [Example 135]: the values for the IC50 (in assay [1] (setting [4]); in the assay with MIA PaCa-2 cells (setting [3])) were 11 nM and 28.9 nM, respectively.

Turning to `Cc1cc2c(nc(C)n2C)c2c1-c1cccc3c(C(=O)c4cc(F)c(NC(=O)/C=C/CN5[C@@H]6CC[C@H]5[C@@H](O)C6)c(F)c4)cn(c13)CCN2C` (racemic) [Example 142], the IC50 was 28.1 nM in assay [1] (setting [4]) and 85.5 nM in the assay with MIA PaCa-2 cells (setting [3]).

Consider `Cc1cc2c(nc(C)n2C)c2c1-c1cccc3c(C(=O)c4cc(F)c(NC(=O)/C=C/CN5[C@@H]6CC[C@H]5[C@H](O)C6)c(F)c4)cn(c13)CCN2C` (racemic) [Example 144], for which the results for the concentration for half-maximal inhibition (IC50) (in assay [1] (setting [4]); in the assay with MIA PaCa-2 cells (setting [3])) were 22.4 nM and 30.2 nM, respectively.

Take `Cn1cnc2c3c(c(C(F)(F)F)cc21)-c1cccn2c(C(=O)c4cc(F)c(NC(=O)/C=C/CN5CC[C@H]6CC[C@H](O)[C@H]65)c(F)c4)cc(c12)CCO3` (racemic) [Example 163]: the IC50 in assay [1] (setting [2]) turned out to be 33.5 nM; in the assay on MIA PaCa-2 cells (setting [3]), 42.7 nM.

Turning to `Cn1cnc2c3c(c(C(F)(F)F)cc21)-c1cccn2c(C(=O)c4cc(F)c(NC(=O)/C=C/CN5CC[C@H]6CC[C@@H](O)[C@H]65)c(F)c4)cc(c12)CCO3` (racemic) [Example 164], the half-inhibitory concentration (IC50) is 21.5 nM in assay [1] (setting [2]) and 13.7 nM in the assay on MIA PaCa-2 cells (setting [3]).

With `Cn1cnc2c3c(c(C(F)(F)F)cc21)-c1cccn2c(C(=O)c4cc(F)c(NC(=O)/C=C/CN5[C@@H]6CC[C@H]5[C@@H](O)C6)c(F)c4)cc(c12)CCO3` (racemic) [Example 172], the figures for the IC50 (in assay [1] (setting [2]); in the assay on MIA PaCa-2 cells (setting [3])) were 10.4 nM and 16.2 nM, respectively.

On to `Cn1cnc2c3c(c(C(F)(F)F)cc21)-c1cccn2c(C(=O)c4cc(F)c(NC(=O)/C=C/CN5[C@@H]6CC[C@H]5[C@H](O)C6)c(F)c4)cc(c12)CCO3` (racemic) [Example 173], for which the IC50 was determined as 7.02 nM in assay [1] (setting [2]) and 10.6 nM in the assay with MIA PaCa-2 cells (setting [3]).

With `Cn1cnc2c3c(c(C(F)(F)F)cc21)-c1cccn2c(C(=O)c4cc(F)c(NC(=O)/C=C/CN5C[C@@H]6COC[C@H]6C5)c(F)c4)cc(c12)CCO3` (racemic) [Example 248], the IC50 in assay [1] (setting [2]) worked out at 18 nM; in the assay with MIA PaCa-2 cells (setting [3]) it was 21.8 nM.

For the compound `CO[C@H]1CC[C@H](NC/C=C/C(=O)Nc2c(F)cc(C(=O)c3cn4c5c(cccc35)-c3c(Cl)cccc3OCC4)cc2F)CC1` (single isomer, unassigned) [Example 1-1], the 50% inhibitory concentration (IC50) in assay [1] (setting [5]) is greater than 6700 nM; in the assay on MIA PaCa-2 cells (Table 3), 7700 nM.

Take `CO[C@H]1CC[C@H](NC/C=C/C(=O)Nc2c(F)cc(C(=O)c3cn4c5c(cccc35)-c3c(Cl)cccc3OCC4)cc2F)CC1` (single isomer, unassigned) [Example 1-2]: the IC50 worked out at 180 nM in assay [1] (setting [5]) and 160 nM in the assay with MIA PaCa-2 cells (Table 3).

With `CC(C)(C)NC/C=C/C(=O)Nc1c(F)cc(C(=O)c2cn3c4c(cccc24)-c2c(Cl)cccc2OCCC3)cc1F` (single isomer, unassigned) [Example 2-1, (E)-4-(tert-butylamino)-N-(4-(11-chloro-5,6-dihydro-4H-benzo[8,9][1,5]oxazonino[7,6,5-hi]indole-1-carbonyl)-2,6-difluorophenyl)but-2-enamide], the IC50 is greater than 6700 nM in assay [1] (setting [5]) and 3100 nM in the assay with MIA PaCa-2 cells (Table 3).

Turning to `CC(C)(C)NC/C=C/C(=O)Nc1c(F)cc(C(=O)c2cn3c4c(cccc24)-c2c(Cl)cccc2OCCC3)cc1F` (single isomer, unassigned) [Example 2-2, (E)-4-(tert-butylamino)-N-(4-(11-chloro-5,6-dihydro-4H-benzo[8,9][1,5]oxazonino[7,6,5-hi]indole-1-carbonyl)-2,6-difluorophenyl)but-2-enamide], the values for the IC50 (in assay [1] (setting [5]); in the assay with MIA PaCa-2 cells (Table 3)) were 500 nM and 390 nM, respectively.

Take `CO[C@H]1CC[C@H](NC/C=C/C(=O)Nc2c(F)cc(C(=O)c3cn4c5c(cccc35)-c3c(Cl)cccc3OCCC4)cc2F)CC1` (single isomer, unassigned) [Example 4-1, (E)-N-(4-(11-chloro-5,6-dihydro-4H-benzo[8,9][1,5]oxazonino[7,6,5-hi]indole-1-carbonyl)-2,6-difluorophenyl)-4-(((1,4r)-4-methoxycyclohexyl)amino)but-2-enamide]: the IC50 in assay [1] (setting [5]) is greater than 6700 nM; with MIA PaCa-2 cells (Table 3), 3600 nM.

In the case of `CO[C@H]1CC[C@H](NC/C=C/C(=O)Nc2c(F)cc(C(=O)c3cn4c5c(cccc35)-c3c(Cl)cccc3OCCC4)cc2F)CC1` (single isomer, unassigned) [Example 4-2, (E)-N-(4-(11-chloro-5,6-dihydro-4H-benzo[8,9][1,5]oxazonino[7,6,5-hi]indole-1-carbonyl)-2,6-difluorophenyl)-4-(((1,4r)-4-methoxycyclohexyl)amino)but-2-enamide], the 50% inhibitory concentration (IC50) came to 290 nM in assay [1] (setting [5]) and 260 nM in the assay on MIA PaCa-2 cells (Table 3).

On to `CO[C@H]1CC[C@H](NC/C=C/C(=O)Nc2c(F)cc(C(=O)c3cn4c5c(cccc35)-c3c(cc(N5CCCC5=O)cc3C(F)(F)F)OCC4)cc2F)CC1` (single isomer, unassigned) [Example 5-1, (E)-N-(2,6-difluoro-4-(8-(2-oxopyrrolidin-1-yl)-10-(trifluoromethyl)-4,5-dihydrobenzo[7,8][1.4]oxazocino[6,5,4-hi]indole-1-carbonyl)phenyl)-4-(((1r,4t)-4-methoxycyclohexyl)amino)but-2-enamide], for which the values for the IC50 (in assay [1] (setting [5]); in the assay with MIA PaCa-2 cells (Table 3)) were 53 nM and 14 nM, respectively.

`C=C1Cc2cc(C(=O)c3cc(F)c(NC(=O)/C=C/CN[C@H]4CC[C@H](OC)CC4)c(F)c3)n3cccc(c23)-c2c(C)cc3c(nc(C)n3C)c21` [Example 48, (E)-N-(2,6-difluoro-4-(2,3,5-trimethyl-13-methylene-12,13-dihydro-3H-imidazo[4″,5″:5′,6′]benzo[1′,2′:6,7]cyclohepta[1,2,3-hi]indolizine-10-carbonyl)phenyl)-4-(((1r,4r)-4-methoxycyclohexyl)amino)but-2-enamide]: the IC50 in assay [1] (setting [6]) came to 93 nM.

Consider `Cc1nc2c3c(c(C(F)(F)F)cc2n1C)-c1cccn2c(C(=O)c4cc(F)c(NC(=O)/C=C/CNC5(CF)COC5)c(F)c4)cc(c12)CCO3` [Example 50, (E)-N-(4-(9,10-dimethyl-7-(trifluoromethyl)-13,14-dihydro-9H-imidazo[4″,5″:5′,6′]benzo[1′,2′:2,3]oxocino[4,5,6-hi]indolizine-2-carbonyl)-2,6-difluorophenyl)-4-((3-(fluoromethyl)oxetan-3-yl)amino)but-2-enamide], for which the IC50 in assay [1] (setting [6]) came out at 780 nM.
